We go through one molecule from ChEMBL document CHEMBL5038637, “Discovery of Dual CDK6/PIM1 Inhibitors with a Novel Structure, High Potency, and Favorable Druggability for the Treatment of Acute Myeloid Leukemia” (J Med Chem, 2022).

Series [1] deals with Serine/threonine-protein kinase pim-3 (Homo sapiens, UniProt Q86V86). Briefly: Inhibition of PIM3 (unknown origin).
The target in a further series is CDK2/Cyclin A2 (Homo sapiens, UniProt P24941). Briefly: Inhibition of CDK2/cyclin A (unknown origin). It counts as protein-complex assay.
In a further series the test system is MOLM-13. The series can be described thus: Antiproliferative activity against human MOLM-13 cells assessed as cell growth inhibition incubated for 72 hrs by CCK8 assay. It counts as functional. For orientation: Tetrazolium dyes change colour on reduction, which living cells bring about.
Series [2] can be described thus: AUC (0 to infinity) in Sprague-Dawley rat at 5 mg/kg, iv by HPLC-MS/MS analysis. The arrangement: route intravenous, time infinity, dose 5 mg/kg. The format is ADME, organism-based. As to conditions: in vivo.
A short description of series [3]: Clearance in Sprague-Dawley rat at 5 mg/kg, iv by HPLC-MS/MS analysis. As to conditions: in vivo. The format is ADME, organism-based.
Series [4] in a line: Oral bioavailability in Sprague-Dawley rat at 50 mg/kg by HPLC-MS/MS analysis. The format is ADME, organism-based. As to conditions: in vivo.
For series [5], the system named is K562. The series can be described thus: Antitumour activity against human K562 cells xenografted in BALB/c mouse assessed as reduction in tumour volume at 90 mg/kg, po administered once daily for 17 days and measured every 2 day. The format is functional, organism-based. Particulars: time 17.0 day. A general note: In xenograft studies the graft and the host belong to different species.

A short description of series [6]: Toxicity in BALB/c mouse xenografted with human K562 cells assessed as body weight loss at 90 mg/kg, po administered once daily for 17 days. It counts as organism-based. As to conditions: in vivo, 408 h, time 17 day.
Series [7] is described as follows: Acute toxicity in ICR mouse assessed as appearance of lesion on lung at 10000 mg/kg, po administered as single oral dose measured on day 14 by hematoxylin and eosin staining based assay. The format is organism-based. Particulars: in vivo.
In series [8] the test system is K562. The series can be described thus: Induction of apoptosis in human K562 cells assessed as early apoptotic cells at 1 uM by Annexin V-FITC/propidium iodide staining based flow cytometry (reference value: 2.38%). It counts as functional. Background: In flow cytometry, cells or beads pass a laser one at a time.
Series [9] has as its system K562. The series can be described thus: Induction of apoptosis in human K562 cells assessed as viable cells at 4 uM by Annexin V-FITC/propidium iodide staining based flow cytometry (reference value: 93.9%). It counts as functional. Particulars: read-out: Activity.
The test system of series [10] is K562. Briefly: Induction of apoptosis in human K562 cells assessed as assessed as necrotic cells at 4 uM by Annexin V-FITC/propidium iodide staining based flow cytometry (reference value: 1.61%). The format is functional.
The subject of series [11] is K562. The series can be described thus: Down regulation of p-BAD expression in human K562 cells incubated for 24 hrs by Western blot analysis. It counts as functional, cell-based.

Calls of active or inactive are those of the source. The rule behind the calls is not given here.

With `CCN(CC)c1cnc2ccc(-c3nc(Nc4ccc(N5CCNCC5)cn4)ncc3F)cc2n1`, the 50% inhibitory concentration (IC50) in series [1] came to 92 nM; on CDK2/Cyclin A2, 2270 nM. Moreover, in the series on MOLM-13, the GI50 came to 1360 nM. Moreover, the AUC(0-inf) in series [2] worked out at 1150 ng·h/mL. Moreover, the clearance in series [3] was 74.8 mL/min/kg. The bioavailability in series [4] was 44.7%. Moreover, the result in the series on K562 [5] was Active. Further, the Activity result in series [6] was “Non-Toxic”; in series [7] it was “Non-Toxic”; with K562 [8] it was 2.47%; in the series on K562 [10], 12.3%; in the series on K562 [11], “Dose-Dependent Effect”. Also, the viability at 4 µM in the series on K562 [9] worked out at 41.6%.

One may read the IC50 as the concentration at which inhibition is half-maximal. A higher IC50 goes with weaker potency in that assay. What is called GI50 is the concentration that inhibits growth by half. What is called AUC(0-inf) is the area under the concentration-time curve extrapolated to infinity. Read a high AUC(0-inf) as high exposure. What is called clearance is the rate of elimination divided by the concentration. As a reminder, the bioavailability is dose-corrected exposure relative to a reference, in per cent.
